Experimental data published in patent US4791139A, “Diphenyl ether derivatives and their use as insecticides” (Imperial Chemical Industries PLC, priority 1986, dated 1988).

Assays:
Assay type in all cases: in vivo
[1] = system: Diabrotica balteata (rootworm larvae); experiment: Residual test, rootworm larvae (DB), Filter paper/maize seed; conditions: 72 h, 3 days, read-out: DB grading of mortality
Method in brief: (§1)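 Acetone solution → diluted in 0.1% wetting agent/water to 100–500 ppm. Pests on host plant or food; treat pests and/or medium. Read: mortality, day 1–7.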

Myzus persicae (aphids) = experiment: Contact test, aphids (MP), Chinese Cabbage leaf; conditions: 72 h, 3 days, read-out: MP grading of mortality
Method in brief: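 Aphids on a host plant and/or the plant itself were treated with 100–500 ppm of product, applied from acetone diluted in water containing 0.1% SYNPERONIC NX wetting agent. Mortality was scored usually one to seven days after treatment.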

[2] = system: Meloidogyne incognita (Tomato root knot eelworm - larvae); experiment: Residual test, Tomato root knot eelworm - larvae (MI), Semi in-vitro; conditions: 168 h, application rate is half that recorded, 7 days, read-out: MI grading of mortality; for mortality at 125 µg/mL: rate 250 ppm; for mortality at 250 µg/mL: rate column 500 ppm
[3] = system: Blattella germanica (cockroach nymphs); experiment: Residual test, cockroach nymphs (BG), Plastic pot; conditions: 72 h, 3 days, read-out: BG grading of mortality
Method in brief: as §1

[4] = system: Chilo partellus (Maize stemborer - larvae); experiment: Residual test, Maize stemborer - larvae (CP), Oilseed rape; conditions: 72 h, 3 days, read-out: CP grading of mortality
Method: The activity of the Product was determined using a variety of insect pests. The Product was used in the form of liquid preparations containing from 100 to 500 parts per million (ppm) by weight of the Product. The preparations were made by dissolving the Product in acetone and diluting the solutions with water containing 0.1% by weight of a wetting agent sold under the trade name "SYNPERONIC" NX until the liquid preparations contained the required concentration of the Product. "SYNPERONIC" is a Registered Trade Mark.
The test procedure adopted with regard to each pest was basically the same and comprised supporting a number of the pests on a medium which was usually a host plant or a foodstuff on which the pests feed, and treating either or both the pests and the medium with the preparations. The mortality of the pests was then assessed at periods usually varying from one to seven days after the treatment.
The results of the tests are given in Table III for each of the Products, at the rate in parts per million given in the second column as a grading of mortality designated as A, B or C wherein A indicates 80-100% mortality or knockdown (70-100% for Meloidogyne incognita), B indicates 50-79% mortality knockdown or knockdown (50-69% for Meloidogyne incognita) and C indicates less than 50% mortality or knockdown.
In Table III the pest organism used is designated by a letter code and the pests species, the support medium or food, and the type and duration of test is given in Table II.
(Maize stemborer - larvae)

[5] = system: Tetranychus urticae (spider mites - ova); experiment: Contact test, spider mites - ova (TUe), French bean leaf; conditions: 144 h, 6 days, read-out: TUE grading of mortality
Method in brief: as §1

[6] = system: Tetranychus urticae (spider mites - adult); experiment: Contact test, spider mites - adult (TUa), French bean leaf; conditions: 72 h, 3 days, read-out: TUA grading of mortality
Method in brief: as §1

[7] = system: Heliothis virescens (tobacco budworm - larvae); experiment: Residual test, tobacco budworm - larvae (HV), Cotton leaf; conditions: 72 h, read-out: HV grading of mortality
Method in brief: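 Products applied as acetone solutions diluted in water with 0.1% wetting agent, at 100–500 ppm; pests on host plant or food, with pests and/or medium treated. Mortality or knockdown scored 1–7 days after treatment and graded A (80–100%), B (50–79%) or C (<50%).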

[8] = system: Musca domestica (houseflies - adults); experiment: Knockdown test, houseflies - adults (MD/KD), Cotton wool/sugar; conditions: 4 hours, read-out: MD/KD grading of knockdown
Method in brief: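 Product was dissolved in acetone and diluted with water containing 0.1% wetting agent to 100–500 ppm. The flies and/or their food medium were treated with the preparation. Mortality was scored 1–7 days after treatment, with an additional knockdown assessment for houseflies.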

[9] = system: Musca domestica (houseflies - adults); experiment: Contact test, houseflies - adults (MD), Cotton wool/sugar; conditions: 24 h, 1 day, read-out: MD grading of mortality
Method in brief: as §1

[10] = system: Nilaparvata lugens (brown plant hopper - nymphs); experiment: Contact test, brown plant hopper - nymphs (NL), Rice plant; conditions: 72 h, 3 days, read-out: NL grading of mortality
Method in brief: as §1

SMILES | mortality at 250 ppm [1] [%] | mortality at 250 ppm (Myzus persicae (aphids)) [%] | mortality at 125 µg/mL [2] [%] | mortality at 250 ppm [3] [%] | mortality at 250 ppm [4] [%] | mortality at 250 ppm [5] [%] | mortality at 250 ppm [6] [%] | mortality at 250 ppm [7] [%] | pest or weed control at 250 ppm [8] [%] | mortality at 250 ppm [9] [%] | mortality at 250 ppm [10] [%] | mortality at 500 ppm [1] [%] | mortality at 500 ppm (Myzus persicae (aphids)) [%] | mortality at 500 ppm [3] [%] | mortality at 500 ppm [4] [%] | mortality at 500 ppm [5] [%] | pest or weed control at 500 ppm [8] [%] | mortality at 500 ppm [9] [%] | mortality at 500 ppm [10] [%] | also measured
CCOc1ccc(C(CCCc2ccc(F)c(Oc3ccccc3)c2)C(F)(F)F)cc1 (racemic) [Compound 5, 1,1,1-Trifluoro-2-(4-ethoxyphenyl)-5-(4-fluoro-3-phenoxyphenyl)pentane] | 80 to 100 | 80 to 100 | < 50 | 80 to 100 | 80 to 100 | 50 to 79 | 80 to 100 | 80 to 100 | 80 to 100 | 80 to 100 | 80 to 100 | – | – | – | – | – | – | – | – | –
CC(C)(C)c1ccc(C(CCCc2cccc(Oc3ccccc3)c2)C(F)(F)F)cc1 (racemic) [Compound 8, 1,1,1-Trifluoro-2-[4-(2-methylprop-2-yl)phenyl]-5-(3-phenoxyphenyl)pentane] | 80 to 100 | < 50 | 70 to 100 | 80 to 100 | 80 to 100 | < 50 | < 50 | 80 to 100 | < 50 | < 50 | < 50 | – | – | – | – | – | – | – | – | –
FC(F)(F)Oc1ccc(C(CCCc2cccc(Oc3ccccc3)c2)C(F)(F)F)cc1 (racemic) [Compound 9, 1,1,1-Trifluoro-2-(4-trifluoromethoxyphenyl)-5-(3-phenoxyphenyl)pentane] | 80 to 100 | 80 to 100 | < 50 | 80 to 100 | 80 to 100 | 80 to 100 | 80 to 100 | 80 to 100 | 80 to 100 | 80 to 100 | 80 to 100 | – | – | – | – | – | – | – | – | –
CCOc1ccc(C(CCCc2cccc(Oc3ccccc3)c2)C(F)(F)C(F)(F)F)cc1 (racemic) [Compound 11, 1,1,1,2,2-Pentafluoro-3-(4-ethoxyphenyl)-6-(3-phenoxyphenyl)hexane] | < 50 | < 50 | < 50 | < 50 | < 50 | < 50 | < 50 | < 50 | 80 to 100 | < 50 | < 50 | – | – | – | – | – | – | – | – | –
FC(F)(F)c1ccc(C(CCCc2cccc(Oc3ccccc3)c2)C(F)(F)F)cc1 (racemic) [Compound 16, 1,1,1-Trifluoro-2-(4-trifluoromethylphenyl)-5-(3-phenoxyphenyl)pentane] | 80 to 100 | 80 to 100 | < 50 | 80 to 100 | 80 to 100 | – | 50 to 79 | 80 to 100 | 80 to 100 | 80 to 100 | 80 to 100 | – | – | – | – | – | – | – | – | –
Fc1ccc(CCCC(c2ccc(OC(F)(F)F)cc2)C(F)(F)F)cc1Oc1ccccc1 (racemic) [Compound 20, 1,1,1-Trifluoro-2-(4-trifluoromethoxyphenyl)-5-(4-fluoro-3-phenoxyphenyl)pentane] | – | – | – | – | – | – | – | – | – | – | – | – | – | – | – | – | – | – | – | mortality at 100 ppm ([1]; 100 ppm): 80 to 100%; mortality at 100 ppm (Myzus persicae (aphids); 100 ppm): 80 to 100%; mortality at 50 µg/mL ([2]; rate column 100 ppm): < 50%; mortality at 100 ppm ([3]; 100 ppm): 80 to 100%; mortality at 100 ppm ([4]; 100 ppm): 80 to 100%; mortality at 100 ppm ([5]; 100 ppm): 80 to 100%; mortality at 100 ppm ([6]; 100 ppm): 50 to 79%; mortality at 100 ppm [7]: 80 to 100%; pest or weed control at 100 ppm ([8]; 100 ppm): 80 to 100%; mortality at 100 ppm ([9]; 100 ppm): 80 to 100%; mortality at 100 ppm ([10]; 100 ppm): 80 to 100%
FC(F)(F)C(CCCc1cccc(Oc2ccccc2)c1)c1ccc(Cl)cc1 (racemic) [Compound 38, 1,1,1-Trifluoro-2-(4-chlorophenyl)-5-(3-phenoxyphenyl)pentane] | – | – | – | – | – | – | – | – | – | – | – | 80 to 100 | < 50 | 50 to 79 | 80 to 100 | < 50 | 50 to 79 | 50 to 79 | 80 to 100 | mortality at 500 ppm [6]: 80 to 100%
CCOc1ccc(C(=CCCc2cccc(Oc3ccccc3)c2)C(F)(F)F)cc1 [Compound 1, E,Z-2-(4-ethoxyphenyl)-5-(3-phenoxyphenyl)-1,1,1-trifluoropent-2-ene] | – | – | – | – | – | – | – | – | – | – | – | 80 to 100 | 80 to 100 | 80 to 100 | 80 to 100 | – | 80 to 100 | 80 to 100 | 80 to 100 | mortality at 250 µg/mL [2]: 50 to 69%; mortality at 500 ppm [7]: 80 to 100%
CCOc1ccc(/C(=C\CCc2cccc(Oc3ccccc3)c2)C(F)(F)F)cc1 [Compound 3, E-1,1,1-trifluoro-2-(4-ethoxyphenyl)-5-(3-phenoxyphenyl)pent-2-ene] | – | – | – | – | – | – | – | – | – | – | – | 80 to 100 | 80 to 100 | 80 to 100 | 80 to 100 | < 50 | 80 to 100 | 80 to 100 | < 50 | mortality at 250 µg/mL [2]: < 50%; mortality at 500 ppm [6]: 50 to 79%; mortality at 500 ppm [7]: 80 to 100%
CCOc1ccc(/C(=C/CCc2cccc(Oc3ccccc3)c2)C(F)(F)F)cc1 [Compound 4, Z-1,1,1-trifluoro-2-(4-ethoxyphenyl)-5-(3-phenoxyphenyl)pent-2-ene] | – | – | – | – | – | – | – | – | – | – | – | < 50 | < 50 | < 50 | 80 to 100 | < 50 | < 50 | < 50 | < 50 | mortality at 250 µg/mL [2]: < 50%; mortality at 500 ppm [6]: < 50%; mortality at 500 ppm [7]: 80 to 100%
CC(C)(C)c1ccc(C(=CCCc2cccc(Oc3ccccc3)c2)C(F)(F)F)cc1 [Compound 6, 2-[4-(2-methylprop-2-yl)phenyl]-5-(3-phenoxyphenyl)-1,1,1-trifluoropent-2-ene] | < 50 | < 50 | 70 to 100 | 80 to 100 | 80 to 100 | < 50 | < 50 | < 50 | < 50 | < 50 | < 50 | – | – | – | – | – | – | – | – | –
FC(F)(F)C(=CCCc1cccc(Oc2ccccc2)c1)c1ccc(Br)cc1 [Compound 39, 1,1,1-Trifluoro-2-(4-bromophenyl)-5-(3-phenoxyphenyl)-pent-2-ene] | – | – | – | – | – | – | – | – | – | – | – | < 50 | < 50 | 50 to 79 | 80 to 100 | < 50 | < 50 | < 50 | < 50 | –
